According to patent US10767162B2, “Methods for differentiation” (PRESIDENT AND FELLOWS OF HARVARD COLLEGE, priority 2014, dated 2020):

B1: p21: protein CDK inhibitor, blocks CDK2; constitutively overexpressed in an mES cell line with a mCherry tag (protein, UniProt P39689 2-159, looked up)
Cyclin-dependent kinase …: SNPGDVRPVPHRSKVCRCLFGPVDSEQLRRDCDALMAGCLQEARERWNFDFVTETPLEGNFVWERVRSLGLPKVYLSPGSRSRDDLGGDKRPSTSSALLQGPAPEDHVALSLSCTLVSERPEDSPGGPGTSQGRKRRQTSLTDFYHSKRRLVFCKRKP
modifications: mCherry tag

Tested on: ES cell line that constitutively over-expressed the transcription factor MyoD
Format: cell-based
Details: for effect on Pax3 expression: continuous treatment during differentiation; for effect on MyoG (myogenin) expression: continuous treatment for 7 days, high or low serum; for effect on MyoG (myogenin) expression / effect on MyoG expression under low serum conditions: MyoG measured on Day 7; for effect on MyoG expression under low serum conditions: low serum (2% HS+Insulin)
Procedure: Time courses of differentiation were run for 7 days similarly to the previous growth factor withdrawal experiments. MyoD was induced at Day −1, and LIF was removed at Day 0. Cells were kept in either high serum (15% FBS) or low serum (2% HS+Insulin) media throughout the time course. Drug treatments were applied continuously at the designated concentrations for the entire duration of the time course, with daily media change. mRNA expression levels were measured by qRT-PCR. […] All measurements are relative to a DMSO control for the specific condition (i.e. low serum values are still higher than in high serum). L=lethal; drug had strong anti-survival effects so no data was collected. Error bars indicate S.E.M. (n=2).
Perturbations were made both under high and low serum conditions and were extended throughout the time course of differentiation. LY294002 is a potent broad inhibitor of phosphoinositide-3-kinases (PI3Ks), and when applied continuously to ES cells over 7 days induced a significant 2.7 fold increase in Pax3 mRNA expression (FIG. 4). This increase was observed both in high serum and low serum media. […] Myc drives cell cycle progression and growth. […] Both are indirect inhibitors of Myc activity; as yet there are no direct pharmacologic inhibitors of the Myc protein.
The effects of inhibiting cyclin-dependent kinases (kinases that are more centrally involved in cell cycle control) and MAP kinase, which very often is involved in cell cycle regulation, were also examined. Roscovitine is a broad CDK inhibitor that blocks a number of family members, including CDK1, CDK2, and CDK5. After continuous treatment throughout the 7 days of differentiation in the time course, roscovitine had no effect on Pax3 expression (FIG. 4). It also had little effect on the later expression of MyoG, either under high or low serum conditions. […] However, the MAPK inhibitor PD98059, which blocks MEK1/2, had no effect on Pax3 and induced MyoG only under low serum conditions (FIG. 4 bottom). The protein CDK inhibitor p21, which is much more specific than roscovitine, blocks CDK2 and prevents entry into S-phase. In ES cells p21 is expressed at low levels, but gradually increases during the course of ES cell differentiation (13). An mES cell line that constitutively overexpresses the p21 protein bicistronically with a mCherry tag (fused to the C-terminus with a 2A peptide) was developed. […] Thus, within the set of cell cycle inhibitors examined, stage-specific and condition-specific effects on gene expression were observed.
ES culture and differentiation. The ES cells contain MyoD (and associated puromycin resistance marker) expressed from a EF1alpha promoter (5). MyoD could be expressed once a loxP segment inserted between the promoter and transgene was excised by a cre recombinase fused to the estrogen receptor. ES cells were cultured in LIF and standard conditions containing 15% FBS, non-essential amino acids, L-glutamine, penicillin/streptomycin, and beta-mercaptoethanol. To induce MyoD, cells were treated for 24 hrs with 1 μM 4OHT (Sigma) in ES media. Reduced serum media consisted of DMEM and 2% horse serum (Invitrogen) plus 10 μg/ml insulin (to maintain cell survival)(Sigma) with sodium pyruvate and penicillin/streptomycin. During differentiation, cells were treated with 1 μg/ml puromycin continuously to select for cells which maintained MyoD expression. N2B27 components/supplements and Knock-out serum replacement were purchased from Invitrogen. LIF was used at a 1000 U/ml and Bmp4 at 10 ng/ml.
Drugs. The PI3K inhibitor LY294002, Roscovitine, the MEK1/2 inhibitor PD98059, and 10058-F4 were purchased from Sigma. The E2F inhibitor HLM006474 was purchased from Millipore. PD0332991 was purchased from SelleckChem. JQ1 was purchased from ApexBio.
RNA isolation and RT-PCR. RNA was isolated using RNAeasy plus kit (Qiagen). Reverse transcription was performed using iScript™ cDNA synthesis (Bio-rad). […]

[1] = Pax3 measured on Day 3, relative to DMSO control

| Molecule | effect on Pax3 expression [1] | effect on MyoG (myogenin) expression | cell survival on continuing treatment | increase in Pax3 mRNA expression (applied continuously over 7 days, observed both in high serum and low serum media, relative to DMSO control, Pax3 measured on Day 3) [fold] | effect on MyoG expression under low serum conditions |
| --- | --- | --- | --- | --- | --- |
| CCc1ccc(/C=C2/SC(=S)NC2=O)cc1 [10058-F4] | suppressive effects | suppressive effects | – | – | – |
| CCOc1ccc(C(Nc2ccccn2)c2ccc3ccc(C)nc3c2O)cc1C (stereo not shown) [HLM006474] | induced Pax3 | suppressed MyoG expression | – | – | – |
| Cc1sc2c(c1C)C(c1ccc(Cl)cc1)=N[C@@H](CC(=O)OC(C)(C)C)c1nnc(C)n1-2 [JQ1] | an increase in Pax3 early expression | later suppression of MyoG expression | – | – | – |
| O=c1cc(N2CCOCC2)oc2c(-c3ccccc3)cccc12 [LY294002] | – | – | cell death | 2.7 | – |
| COc1cccc(-c2cc(=O)c3ccccc3o2)c1N [PD98059] | no effect | – | – | – | induced MyoG |
| CC(=O)c1c(C)c2cnc(Nc3ccc(N4CCNCC4)cn3)nc2n(C2CCCC2)c1=O [PD0332991] | lack of effect | lack of effect | – | – | – |
| CC[C@H](CO)Nc1nc(NCc2ccccc2)c2ncn(C(C)C)c2n1 [roscovitine, Roscovitine] | no effect | little effect | – | – | – |
| B1 | no effect | – | – | – | upregulated MyoG |
